Common to all, as to type: cell-based
In data set [1] the test system is MDRAB (multidrug-resistant Acinetobacter baumannii). Particulars: MDRAB (multidrug-resistant, 2 h). On the procedure:
(§1) The antimicrobial activities of dK1, dK2, dK3, dK4 and dK5 were determined by bactericidal assays on laboratory strains of MRSA (methicillin-resistant Staphylococcus aureus) and MDRAB (multidrug-resistant Acinetobacter baumannii).
(§2) The bacteria were inoculated in Luria broth (LB) solid medium (BioShop Canada Inc., Ontario, Canada) (Focus Bioscience, Murrarrie, Australia). Single colonies were collected and inoculated in 8 mL of liquid medium, and the cultures were incubated overnight at 37° C., 200 rpm. On the next day, the bacterial cultures were centrifuged with a centrifuger (KUBOTA2800, KUBOTA, Osakashi, Japan) at 2500 rpm for 5 minutes at room temperature, and the supernatants were discarded. The pellets were mixed and suspended with 1×PBS (phosphate-buffered saline, PBS, pH 7.4) (PROTECH, Taipei, Taiwan). The step was repeated twice to wash the bacterial cells. After the washing step, the bacterial cells were then re-suspended in 1×PBS, and the concentrations of bacterial cells were adjusted to 1×10^7 CFU/mL.
(§3) In the bactericidal assay, 2700 μL of 1× PBS were mixed with 300 μL 1×10^7 CFU/mL bacteria suspension mentioned as negative control, and each of the solutions of dK1 to dK5 at different concentrations was mixed with 300 μL 1×10^7 CFU/mL bacteria suspension and 2700 μL of 1× PBS. The mixtures were incubated at 37° C., 200 rpm for 2 hours. After incubation, 100 μL of each of the control group samples and the experimental group samples were collected and put in Eppendorf centrifuge tubes, and followed by 10-fold serial dilution with 900 μL of 1× PBS. After the serial dilution, 100 μL of the sample from each group was inoculated on the LB solid medium. The experiments were carried out in triplicate for each group, and the LB solid media with samples were cultured at 37° C. for at least 18 hours. After overnight incubation at 37° C., bacterial colonies were counted. Bacterial survival rates of each group were determined as follows. % survival rate=[(Colonies formed from peptide-treated sample)/(Colonies formed from negative control)]×100%

Data set [2] concerns MRSA (methicillin-resistant Staphylococcus aureus). The following applies: 2 h. On the procedure: as §1, §2, §3
The nature of a further data set: in vitro. Particulars: human. On the procedure: For measuring the cytotoxicity of the antimicrobial peptides dK1, dK2 and dK3, a colorimetric 3-bis-(2-methoxy-4-nitro-5-sulfophenyl)-2H-tetrazolium-5-carboxanilide (XTT) dye reduction assay was employed. The cytotoxicity of the antimicrobial peptides of the invention were tested on Huh-7 and HeLa cells. The culture medium for Huh-7 is Dulbecco's modified eagle medium, DMEM (Gibco™, NY, USA) containing 10% fetal bovine serum (FBS) (Gibco™, NY, USA) 1% non-essential amino acid solution (NEAA) (Biological Industries, Beit HaEmek, Israel) and 1% streptomycin-penicillin solution (Gibco™, NY, USA). The culture medium for HeLa cells is Minimum Essential Medium (MEM) (Gibco™, NY, USA) containing 10% FBS (Gibco™, NY, USA), 1% sodium pyruvate (Gibco™, NY, USA), 1% NEAA (Biological Industries, Beit HaEmek, Israel) and 1% streptomycin-penicillin (Gibco™, NY, USA). […] The absorbance of the samples was measured at the 4th hour, and cell viability calculated to evaluate the cytotoxicity of the antimicrobial peptides. The absorbance of the samples was measured with an ELISA reader (EPOCH™, BioTek instruments, Inc., Winooski, USA) at a wavelength of 475 nm. The absorbance value of the positive control group was regarded as 0% cell viability, and the absorbance value of the negative control group was regarded as 100% cell viability. […]

Residues, ends and D or L forms follow the SMILES beside them. No end group written: not given here.

Experimental findings from patent publication US12129279B2, “Antimicrobial peptides and use of the same for treating microbial infections” (TZU CHI UNIVERSITY, priority 2022, dated 2024) are described below.

In general, IC50 refers to the midpoint of a concentration-inhibition curve. Higher therefore signals a need for much substance. Consider `CC(C)C[C@H](NC(=O)[C@H](CCCCN)NC(=O)[C@@H]1CCCN1C(=O)CNC(=O)[C@H](Cc1ccccc1)NC(=O)[C@H](CCCCN)NC(=O)[C@H](C)NC(=O)[C@@H]1CCCN1C(=O)[C@H](Cc1ccccc1)NC(=O)[C@H](CO)NC(=O)[C@H](C)NC(=O)[C@@H]1CCCN1C(=O)[C@H](CC(C)C)NC(=O)[C@@H](N)Cc1ccccc1)C(=O)N[C@@H](Cc1ccccc1)C(=O)N[C@@H](CS)C(=O)N[C@@H](CC(C)C)C(=O)N[C@H](C(=O)N[C@H](C(=O)N[C@@H](CCCCN)C(=O)N[C@@H](CCCCN)C(=O)N[C@@H](CS)C(=O)O)[C@@H](C)O)C(C)C` [dK4] (H-FLPASFPAKFGPKLFCLVTKKC-OH; N-terminus and C-terminus assumed), for which the half-inhibitory concentration (IC50) in data set [1] was in the range of 8000 to 10000 nM.
Regarding FLAIPSKPLKVAKPLGFALIIL [dK5], in data set [2], the IC50 fell in the range of 10000 to 15000 nM and the “MBC (minimum bactericidal concentration) against MRSA” value (from here on “MBC … against MRSA”) lay within 30 to 40 µM. In data set [1], this compound yielded an IC50 of 20000 to 25000 nM.
On to IVRRIWRAWARRVRLVARIPAV [dK1], for which, in data set [2], the IC50 is around 195 nM and the “MBC … against MRSA” value lay within 0.39 to 0.78 µM. Moreover, in data set [1], the IC50 is around 167 nM and the “MBC (minimum bactericidal concentration) against MDRAB” value (“MBC … against MDRAB” for short) was in the range of 0.667 to 1.33 µM.
Consider RLIAAWRAVIRARVRARRAPIF [dK2], for which, in data set [2], the IC50 was around 390 nM and the “MBC … against MRSA” value was in the range of 1.56 to 3.12 µM. In data set [1], the IC50 fell in the range of 200 to 250 nM and the “MBC … against MDRAB” value was in the range of 0.5 to 0.6 µM.
Consider RPFIVRAWRRAVARRARAILPI [dK3], for which, in data set [2], the IC50 was 1560 to 3120 nM and the “MBC … against MRSA” value lay within 3.12 to 4.5 µM. Moreover, in data set [1], the IC50 lay in the range of 195 to 390 nM and the “MBC … against MDRAB” value lay within 0.78 to 1.56 µM. The same compound registered a cytotoxicity at 4 h, 2 μM in the data set “in vitro” of 50%.
